For 88 compounds, melting point results are on record in a melting point compilation (Tetko et al.; mined from patent text by program, amines drawn as free bases though some values may be those of a salt).

Molecules are shown by their SMILES.

Regarding `CC(C)CCN1C(=O)C(NC(=O)Nc2ccccc2)C(=O)Nc2ccccc21` (stereo not drawn), the melting point (usually the temperature of the solid-liquid transition) is 249 to 250 °C.

Turning to `O=C1C(Cl)=C(c2ccccc2)C(=O)N1c1ccccc1Cl`, the melting point was in the range of 132 to 133 °C.

Regarding `O=[N+]([O-])c1cc(-c2nc3n(c2Cl)CCCC3)c(Cl)cc1Cl`, the melting point fell in the range of 111 to 112 °C.

In turn, `CCCN1C(=O)CN=C(N2CCCCCC2)c2ccccc21` returned a melting point of 115 to 118 °C.

Compound `Cc1c(C(=O)O)cnn1-c1nc(-c2ccc(C(F)(F)F)cc2)cs1` registered a melting point of 273 to 274 °C.

In turn, `COc1ccc2[nH]c(C(=O)c3ccc(F)cc3)cc2c1` gave a melting point of 167 to 169 °C.

For `O=S1(=O)N=C(NCC2CC2)Nc2ccc(C(F)(F)F)cc21`, the melting point fell in the range of 266 to 268 °C.

Turning to `N#Cc1cnc2cc(F)c(OCc3ccccc3)cc2c1Cl`, the melting point lay in the range of 159 to 160 °C.

`CCCc1c(OC(C)=O)ccc2oc(Cc3ccc(OC)cc3)c(C)c12` had a melting point of 39 to 41 °C.

With `C=C(C)CN(CCC12CC3CC(CC(C3)C1)C2)C(=O)NCCCc1ccncc1`, the melting point lay within 108 to 109 °C.

`Cc1cc2c(-c3ccccc3Cl)c(C(=O)O)c(=O)n(C)c2cc1C` returned a melting point of 251 to 252 °C.

In the case of `O=Cc1cn(Cc2ccc(OCc3coc(-c4ccccc4)n3)cc2)nc1-c1cccs1`, the melting point fell in the range of 153 to 154 °C.

As for `NS(=O)(=O)c1ccccc1OCCO`, the melting point was in the range of 94 to 99 °C.

In turn, `CS(=O)(=O)N(Cc1cccnc1)c1cccc(C(F)(F)F)c1` returned a melting point of 106 to 110 °C.

In turn, `COC(=O)[C@H]1NC(=O)[C@H]1NC(=O)Cc1cccs1` (relative stereo) yielded a melting point of 133 to 136 °C.

Consider `Cn1c2ccccc2c2cc(CN3CCOCC3)sc21`, for which the melting point was in the range of 102 to 106 °C.

Consider `N#Cc1cn(-c2ccc([N+](=O)[O-])c(N)c2)cc1-c1ccccc1`, for which the melting point is 193 to 194 °C.

Compound `COc1c(NC(=O)c2ccc(Br)cc2)ccc2cc(CN3CCCC3)cnc12` yielded a melting point of 121 to 122 °C.

The compound `O=C(NCc1ccccc1)c1cc2ccnc(Cl)c2[nH]1` displayed a melting point of 217 to 220 °C.

`COc1cc2c(c3ccccc13)N(C(C)=O)c1ccccc1S2` came in with a melting point of 208 to 209 °C.

As to `COC(=O)c1cc(Cl)sc1N`, the melting point fell in the range of 99 to 101 °C.

In turn, `NCc1cccnc1C1CCN(c2c(F)c(N)c3c(=O)c(C(=O)O)cn(C4CC4)c3c2F)C1` (stereo not drawn) had a melting point of 226 to 228 °C.

In turn, `Cc1cncn1CC#CCn1ccn(C)c1=O` registered a melting point of 149 to 153 °C.

For the compound `CCOC(=O)c1cnc2c(c1Cl)CCCCCC2`, the melting point lay within 33 to 36 °C.

As for `CN(C)CCSC1=Nc2ccc(Br)cc2C(c2ccccc2F)=NC1`, the melting point is 105 to 108 °C.

As to `CCCc1c(OCCCCCCc2cccc(OCCCCCCCCC(=O)O)c2CCC(=O)O)ccc2c1OCCC2=O`, the melting point fell in the range of 63 to 65 °C.

On to `CC(=O)OC1CSC(Oc2ccc(-c3cncnc3)nc2Cl)C(OC(C)=O)C1OC(C)=O` (stereo not drawn), for which the melting point came to 168 °C.

Compound `O=[N+]([O-])c1c(Cl)nc2ccccc2c1NCc1ccccn1` had a melting point of 179 to 182 °C.

Turning to `Clc1ccc(OCC2CO2)c(OCc2ccccc2)c1Cl` (stereo not drawn), the melting point came out at 65 °C.

The compound `Cn1c(/C=C/C(O)CC(O)CC(=O)O)c(-c2ccccc2)c2ccccc2c1=O` (stereo not drawn) came in with a melting point of 170 °C.

Turning to `CCOC(=O)c1cnc(-c2ccc(C(F)(F)F)cc2)s1`, the melting point was 98 to 110 °C.

`CCCCCCCCCCCCCCOc1ccc(C(=O)Cl)cc1Cl` gave a melting point of 90 °C.

In turn, `Cc1nnc(-c2ccc3ncn(-c4ccc(OC(F)(F)F)cc4)c3c2)o1` came in with a melting point of 160 to 161 °C.

Compound `Cc1ncnc(-c2cc([N+](=O)[O-])c(C#N)cc2F)c1Cl` yielded a melting point of 123 to 125 °C.

In the case of `COc1ccc2c(c1)c(CC(=O)O)c(C)n2C(=O)c1c(Cl)cc(Cl)cc1Cl`, the melting point is 193 to 196 °C.

On to `O=C(O)Cc1cc(O)c2c(c1)CCc1ccccc1C2=O`, for which the melting point was in the range of 149 to 151 °C.

`CCCc1ccc(S(=O)(=O)NCC2CCN(S(=O)(=O)c3ccc(CCC)cc3)CC2)cc1`: the melting point is 158 to 159 °C.

As for `CC(C)(C)OC(=O)C(N)c1ccc(C(=O)O)cc1[N+](=O)[O-]` (stereo not drawn), the melting point lay within 124 to 126 °C.

`CCOC(=O)C=Cc1ccc(OCc2coc(-c3ccccc3)n2)c(OC)c1` registered a melting point of 128 to 129 °C.

For the compound `CO/C=C(/C(=O)OC)c1csc(C(=O)c2ccccc2)c1`, the melting point is 82 to 84 °C.

The compound `CCCc1ccc(Oc2c(-c3ccc(S(C)(=O)=O)cc3)cnn(CC(F)(F)F)c2=O)cc1` returned a melting point of 152 to 153 °C.

`CN(C)CC(=O)N1c2cc(Cl)ccc2N(C)S(=O)(=O)c2ccccc21` had a melting point of 175 to 176 °C.

`COc1cccc(C(=O)Nc2ccc3ccc(OC)nc3n2)c1` yielded a melting point of 135 °C.

`Cc1oc(-c2ccccc2)nc1CCOc1ccc(C[C@H](NC(=O)C=Cc2ccccc2C(F)(F)F)C(=O)O)cc1`: the melting point lay in the range of 170 to 172 °C.

`Cn1c(CCCCN2CCN(c3cc(C(C)(C)C)nc(C(C)(C)C)n3)CC2)nnc1-c1ccccc1` returned a melting point of 144 to 145 °C.

`COc1ccnc(CSc2nc3c(C)c(OC(F)F)c(C)cc3[nH]2)c1OC` yielded a melting point of 137 to 138 °C.

For `O=C(Nc1ccc(-n2nc(C3CC3)cc2C2CC2)cc1)c1c(Cl)cncc1Cl`, the melting point lay in the range of 159 to 164 °C.

Compound `C=CCON=C(CCC)C1=C(O)CC(c2cc(C)cs2)CC1=O` (stereo not drawn) gave a melting point of 72 to 74 °C.

As to `CS(=O)(=O)c1ccc(C(CC2CCCC2)C(=O)O)cc1C(F)(F)F` (stereo not drawn), the melting point was 100 to 102 °C.

Compound `COC(=O)c1ccc(Cc2cccc3ccc(C#N)cc23)c(OC)c1` showed a melting point of 138 to 140 °C.

The compound `Cc1cc(C(=O)N2CCC3(CC2)CSC2=C(O3)c3ccccc3C(=O)C2=O)c(C)o1` gave a melting point of 234 to 235 °C.

In turn, `COc1cc2nc(N)nc(-c3ccc(O)c(I)c3)c2cc1OC` had a melting point of 248 to 250 °C.

Compound `O=C1N(Cc2ccc(-c3ccno3)cc2)c2ccccc2C12COc1cc3c(cc12)OCCO3` (stereo not drawn) yielded a melting point of 209 to 212 °C.

The compound `C=CC(=O)OCc1c2ccccc2cc2ccccc12` showed a melting point of 120 to 125 °C.

Regarding `CCN1CCN(CC(=O)NC2(c3ccc(Cl)cc3)C(=O)Nc3cc(C#N)cc(C(F)(F)F)c32)CC1` (stereo not drawn), the melting point was in the range of 260 to 262 °C.

As for `Cc1c[nH]c(=O)n(-c2cc(C(=O)OC(C)C)c(Cl)cc2F)c1=O`, the melting point lay within 170 to 173 °C.

With `COC(=O)c1ccccc1C=Nc1ccc(Oc2ccc(C(F)(F)F)cc2Cl)cc1O`, the melting point lay in the range of 82 to 85 °C.

In turn, `CCOC(=O)c1ccc2cc(-c3ccc(OC)cc3)ccn2c1=O` returned a melting point of 205 to 209 °C.

On to `Cc1noc(NS(=O)(=O)c2ccccc2Br)c1Br`, for which the melting point was 84 to 86 °C.

Regarding `COc1ccc(C=C2CCCN2Cc2ccccc2)cc1OC`, the melting point is 105 °C.

In turn, `COc1ccc(CCNC(=O)C=Cc2ccc(C)cc2C)cc1S(N)(=O)=O` came in with a melting point of 202 °C.

`Cc1ccc2c(c1)[nH]c(=O)n2CCCOS(C)(=O)=O` yielded a melting point of 125 °C.

Compound `CS(=O)(=O)c1ccc(Oc2cc(OCc3ccccc3)c3[nH]c(C4=NCC(CC(N)=O)S4)cc3c2)cc1` (stereo not drawn) showed a melting point of 134 to 135 °C.

Regarding `CC(C)CC1N=C(c2ccccc2)c2cc(Cl)ccc2N=C1NN` (stereo not drawn), the melting point fell in the range of 165 to 168 °C.

Turning to `CC#CCOc1cc(Oc2ccc(F)c(F)c2)ncn1`, the melting point was found to be 110 °C.

Regarding `O=[N+]([O-])c1ccc(-c2ncnn2-c2ccc(F)cc2)cc1`, the melting point lay within 132 to 134 °C.

In turn, `Cn1cnc2ccc(-c3nnc(SCc4cccc(C(F)(F)F)c4)o3)cc21` came in with a melting point of 126 to 127 °C.

For `Fc1cccc(COc2ccc(Nc3ncnc4cc(C#Cc5nccs5)sc34)cc2Cl)c1`, the melting point is 235 °C.

`Clc1nc(C(Cl)(Cl)Cl)nc2ccc(I)cc12` gave a melting point of 154 to 155 °C.

The compound `Cc1oc(-c2ccccc2)nc1CCOc1cc(CO)on1` returned a melting point of 115 to 116 °C.

Consider `Cn1c(COc2ccc(CC3SC(=O)NC3=O)cc2)nc2ccc(Oc3cccc(NC(=O)Nc4ccc(F)cc4)c3)cc21` (stereo not drawn), for which the melting point is 169 to 171 °C.

The compound `CCCCS(=O)(=O)Nc1cccc(Oc2cccc3cccnc23)c1` yielded a melting point of 107 to 108 °C.

The compound `C#CCN1C(=O)c2cccc3cccc(c23)C1=O` registered a melting point of 235 to 237 °C.

As for `CCc1nc2c(N)nc3ccccc3c2n1CCCCNC(=O)c1ccccc1`, the melting point lay within 203 to 206 °C.

`Nc1c(C(F)(F)F)cc(OCc2ccccc2)cc1C(F)(F)F` came in with a melting point of 58 to 59 °C.

In the case of `COc1c(OC)c(OC)c2c(=O)cc(-c3ccc(OCc4ccccc4)c(OCc4ccccc4)c3)oc2c1OC`, the melting point fell in the range of 157 to 158 °C.

In turn, `COc1ccc(-c2cn([C@H]3CN4CCC3CC4)nn2)cn1` showed a melting point of 155 °C.

Compound `CCCC1COc2c(Cc3ccc(C(C)C)cc3)c(C)c(NC(=O)CC(C)(C)C)c(C)c21` (stereo not drawn) showed a melting point of 144 to 145 °C.

With `CCn1ccc(Nc2cc(Br)cn(C)c2=O)n1`, the melting point was in the range of 165 to 167 °C.

Take `CC#CCOc1ccc(S(=O)(=O)NCCC(=O)NO)cc1`: the melting point lay in the range of 118 to 128 °C.

As for `Cc1cccc(-c2[nH]c(C(C)C)nc2-c2cccc(-c3cccc(NS(C)(=O)=O)c3)c2)n1`, the melting point was in the range of 108 to 112 °C.

`O=C1COc2cc(Br)c(F)cc2N1`: the melting point is 244 °C.

Regarding `Cc1c(-c2ccc(OCC(=O)O)cc2)oc(=O)c(Sc2ccccc2)c1O`, the melting point was 194 to 197 °C.

`O=C(O)CNC1C2CC3CC(C2)CC1C3` (stereo not drawn) gave a melting point of 255 °C.

Consider `CCCCCCCCCOC1C(O)C(CO)OC1n1cnc2c(N)ncnc21` (stereo not drawn), for which the melting point fell in the range of 143 to 144 °C.

Compound `O=C(O)c1cc(S(=O)(=O)N2CCC(CCl)CC2)ccc1Cl` came in with a melting point of 175 to 177 °C.

`CC(=O)Nc1nc(-c2ccc(S(=O)(=O)COC(C)=O)cc2)cs1` registered a melting point of 237 to 238 °C.

`CCCCS(=O)(=O)Nc1ccc(CCCCOCCCCCCNCC(O)c2ccc(O)c(CO)c2)cc1` (stereo not drawn) displayed a melting point of 81 to 84 °C.
